# From patent US11608483B2, “Inverted culture plate system for cellular co-culture” (University of Maryland, Baltimore, priority 2016, dated 2023)
# Where two headings read alike, the source gives them in different places.
# What was measured:
# [1] = system: CYP2B6 and CYP3A4 expression; assay: CYP2B6 and CYP3A4 mRNA (real-time RT-PCR) and protein (western blot) induction in human primary hepatocytes
# Protocol: (§1) The age and sex of each liver donor used are detailed in Table 1.
# (§2) Total RNA was isolated from cells using TRIzol reagent (ThermoFisher, Rockford, Ill.) and reverse transcribed using a High Capacity cDNA archive kit (Applied
# (§3) Biosystems, Foster, Calif.) according to the manufacturer's instructions. Real-time PCR assay was performed using SYBR Green PCR Mastermix (Qiagen, Germantown, Md.) on an ABI StepOnePlus real-timePCR system (Applied Biosystems). […] Expression values were quantified using the following equation: fold over control=2^ΔΔCt method, where ΔCt represents the differences in cycle threshold numbers between the target gene and glyceraldehyde-3-phosphate dehydrogenase, and ΔΔCt represents the relative change in these differences between control and treatment groups.
# (§4) Subsequently, membranes were incubated with primary antibodies against CYP2B6 (1:200; Santa Cruz Biotechnology, Santa Cruz, Calif.), CYP3A4 (1:5000; Sigma-Aldrich), or β-actin (1:50,000, Sigma-Aldrich) at 4° C. overnight. Blots were developed with West Pico chemiluminescent substrates (ThermoFisher) after incubation with horse-radish peroxidase secondary antibodies.
# [2] = target: T1, hCAR (Homo sapiens, UniProt Q14994); assay: Nuclear translocation of EYFP-hCAR in HPHs; type: cell-based; set-up: expressed in transfected cells; details: HPHs donor 123; 1 mM PB, 10 μM others; 8 hours
# T1 sequence (Q14994 1-348 isoform Q14994-2): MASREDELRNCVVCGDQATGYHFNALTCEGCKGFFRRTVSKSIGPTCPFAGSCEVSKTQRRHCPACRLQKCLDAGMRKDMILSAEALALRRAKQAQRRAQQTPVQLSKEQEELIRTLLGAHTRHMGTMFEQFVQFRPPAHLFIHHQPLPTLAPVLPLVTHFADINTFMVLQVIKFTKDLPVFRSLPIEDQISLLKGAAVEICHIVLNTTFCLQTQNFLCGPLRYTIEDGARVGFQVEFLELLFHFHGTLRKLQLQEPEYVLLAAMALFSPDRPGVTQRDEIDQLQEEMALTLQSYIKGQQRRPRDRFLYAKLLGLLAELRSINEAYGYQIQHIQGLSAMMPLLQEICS
# Protocol: After treatment, cells were fixed with 4% paraformaldehyde, stained with 1 μg/ml 4′,6-diamidino-2-phenylindole (Sigma-Aldrich) for 30 minutes, and EYFP-hCAR localization in hepatocytes was visualized on a Nikon Eclipse TI fluorescent microscope (Nikon, Melville, N.Y.). Quantitative distribution of EYFP-hCAR was analyzed using General Analysis in the Nikon Elements AR High Content Analysis software package (version 4.50.00). Nuclear localization was defined and quantified as the percentage of total enhanced yellow fluorescent protein that overlaps with 4′,6-diamidino-2-phenylindole.
# [3] = target: T2, hCAR1+A (Homo sapiens, UniProt Q14994, INS274A); assay: CAR1+A/CYP2B6-2.2k reporter assay in transfected HepG2 cells; type: cell-based; details: HepG2 cells without HPHs, 24 h
# T2 construct: expressed in transfected cells; host or cells: HepG2
# T2 sequence (Q14994 with tags, fused parts or gaps isoform Q14994-2 INS270A): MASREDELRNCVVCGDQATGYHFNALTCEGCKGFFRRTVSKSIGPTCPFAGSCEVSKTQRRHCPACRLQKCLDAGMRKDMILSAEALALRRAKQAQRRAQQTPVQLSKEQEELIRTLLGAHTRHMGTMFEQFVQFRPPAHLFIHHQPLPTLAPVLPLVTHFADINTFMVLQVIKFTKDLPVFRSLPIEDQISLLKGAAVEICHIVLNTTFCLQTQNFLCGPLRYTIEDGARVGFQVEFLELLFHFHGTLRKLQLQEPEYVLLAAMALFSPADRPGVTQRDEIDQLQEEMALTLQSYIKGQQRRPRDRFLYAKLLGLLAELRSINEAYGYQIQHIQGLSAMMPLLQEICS
# T2 sequence (P19793 1-462 partner): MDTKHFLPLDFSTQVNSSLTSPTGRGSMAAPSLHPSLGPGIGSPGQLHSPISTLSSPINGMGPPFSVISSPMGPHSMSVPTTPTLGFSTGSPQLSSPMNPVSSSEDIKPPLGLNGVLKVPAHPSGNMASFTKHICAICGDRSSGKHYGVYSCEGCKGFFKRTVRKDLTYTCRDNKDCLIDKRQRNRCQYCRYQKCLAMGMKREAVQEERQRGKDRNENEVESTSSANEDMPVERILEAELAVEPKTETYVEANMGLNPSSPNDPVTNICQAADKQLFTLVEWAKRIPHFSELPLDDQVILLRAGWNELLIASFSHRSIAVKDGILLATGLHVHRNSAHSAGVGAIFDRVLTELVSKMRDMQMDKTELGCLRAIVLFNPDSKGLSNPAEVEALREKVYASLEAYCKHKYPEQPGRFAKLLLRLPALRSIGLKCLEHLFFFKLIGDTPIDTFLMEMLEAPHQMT
# [4] = system: human primary hepatocytes (HPHs); assay: LC-MS/MS measurement of PK11195 metabolism in HPHs; type: in vitro ADME; details: for LC-MS/MS peak of metabolite in HPH culture medium: after 1 hour incubation of 10 μM PK11195 with HPHs, versus 0 hour
# Protocol: Media (450 μl ) were collected from each well at 0 and 1 hours and frozen immediately at −80° C. Samples were thawed on ice before adding 50 μl of medium to 450 μl of ice-cold methanol/H2O (8:1, v/v). After centrifugation at 16,000g for 30 minutes, 200 μl of supernatant was transferred to a separate tube and dried down before resuspension in 200 μl H2O/ACN (1:1, v/v) with 0.1% formic acid. Authentic standards were prepared to 1 μM in H2O/ACN (1:1, v/v) with 0.1% formic acid. LC-MS/MS analysis was performed on a TSQ Quantum Ultra Triple Stage Quadrupole Mass Spectrometer coupled to an Ultimate 3000 RS Liquid Chromatogram System (Thermo Scientific, Waltham, Mass.). The LC separation was performed on a Waters (Milford, Mass.) BEH C18 column (2.1×50 mm, 1.7 μm) operated at 30° C. Solvents A and B consisted of 0.1% formic acid in H2O and 0.1% formic acid in ACN, respectively. The gradient program was 0.0-0.5 minutes, 50% B; 0.5-2.0 minutes, gradient to 95% B; 2.0-3.5 minutes, 95% B; 3.5-4.0 minutes, gradient to 50% B; and 4.0-5.0 minutes, 50% B. The flow rate was 0.5 ml/min and injection volume was 5 μl. Tandem mass spectrometry was performed in the positive-ion mode and the electrospray ionization source parameters were as follows: spray voltage, 3000; capillary temperature, 325; sheath gas pressure, 40; auxiliary gas pressure, 15; capillary offset, 35; and tube lens offset, 80. […] Data collection and analysis were performed using Xcalibur V 2.1 (Thermo Scientific).
# [5] = target: T1, hCAR; assay: CYP2B6 luciferase reporter assay in HepG2-CAR-2B6 stable cells without HPHs; type: cell-based; set-up: expressed in transfected cells; details: 24 h; for hCAR activity (CYP2B6 reporter luciferase activity): HepG2-CAR-2B6 cells without HPHs
# [6] = system: HEK-293 cells; details: HPH/HEK-293 co-culture versus HEK-293 alone, 24 hrs
# [7] = system: HEK-293 cells; details: HEK-293 cultured alone, concentration up to 1 mM, 24 hrs
# [8] = Mordente A et al., 2009; cited from earlier work
# [9] = target: T1, hCAR; details: 8 μM KET, PK11195 1 and 10 μM, HPH co-culture, 24 h
# [10] = target: T3, hCAR/GRIP1 interaction (Homo sapiens, UniProt Q14994); assay: Mammalian two-hybrid assay in COS1 cells, CAR/GRIP1; type: cell-based; details: 24 h
# T3 construct: expressed in transfected cells; host or cells: COS1
# T3 sequence (Q14994 1-348 isoform Q14994-2): T1 sequence (Q14994 1-348 isoform Q14994-2)
# Protocol: (§5) COS1 cells seeded in 24-well plates were transfected with 110 ng of the reporter gene plasmid pG5luc, 80 ng of expression plasmids encoding the respective VP16AD/hCAR fusions, 40 ng of expression plasmids encoding GAL4-DBD/coregulatory fusions, and 20 ng of reference plasmid pRL-TK, each well using X-tremeGENE 9 DNA Transfection Reagent (Sigma-Aldrich). […] Luciferase activities were measured in cell lysates using the Dual Luciferase Kit (Promega). Data represent the mean±S.D. of three individual transfections.
# [11] = target: T4, hCAR/SRC-1 interaction (Homo sapiens, UniProt Q14994); assay: Mammalian two-hybrid assay in COS1 cells, CAR/SRC-1; type: cell-based; details: 24 h
# T4 construct: expressed in transfected cells; host or cells: COS1
# T4 sequence (Q14994 1-348 isoform Q14994-2): T1 sequence (Q14994 1-348 isoform Q14994-2)
# Protocol: as §5
# [12] = system: CYP2B6 and CYP3A4 expression; assay: CYP2B6 and CYP3A4 induction in PXR-KO HepaRG cells; details: differentiated PXR-KO HepaRG cells; 10 μM; 24 h mRNA, 72 h protein
# Protocol: as §1, §2, §3, §4
# [13] = system: CYP2B6 and CYP3A4 expression; assay: CYP2B6 and CYP3A4 induction in wild-type HepaRG cells; type: cell-based; details: differentiated wild-type HepaRG cells; 10 μM PK11195; 24 h mRNA, 72 h protein
# Protocol: as §1, §2, §3, §4
smiles,measurement,setting,value
"Clc1ccc(-c2nc3sccn3c2C=NOCc2ccc(Cl)c(Cl)c2)cc1 [CITCO, 6-(4-Chlorophenyl)imidazo[2,1-b][1,3]thiazole-5-carbaldehyde-O-(3,4-dichlorobenzyl)oxime]",induction of CYP2B6 and CYP3A4 at mRNA and protein levels,"[1]; HPHs from liver donors 107 and 122, 1 mM PB, 1 μM CITCO, 10 μM RIF, 10 μM PK11195, 24 h mRNA, 72 h protein",robustly induced
"O=C(O)c1cc2ccccc2c(-c2ccccc2Cl)n1 [COOH-PK, 1-(2-Chlorophenyl)isoquinoline-3-carboxylic acid]",induction of CYP2B6 and CYP3A4 at mRNA and protein levels,"[1]; HPHs from liver donors 120 and 121, 0.1, 1 and 10 μM, 24 h mRNA, 72 h protein",negligible effects
same,nuclear translocation of hCAR (EYFP-hCAR),[2],negligible CAR nuclear accumulation
same,hCAR activation in the CAR1+A/CYP2B6-2.2k reporter assay,[3],negligible CAR activation
same,LC-MS/MS peak of metabolite in HPH culture medium,[4],significantly increased in intensity
same,hCAR activity (CYP2B6 reporter luciferase activity),[5],no effect on CAR activity
"O=P1(N(CCCl)CCCl)NCCCO1 (stereo not shown) [CPA, cyclophosphamide]",metabolism-dependent cytotoxicity,[6],showed metabolism-dependence in the co-culture only
same,cytotoxicity,[7],no cytotoxicity
"COc1cccc2c1C(=O)c1c(O)c3c(c(O)c1C2=O)C[C@@](O)(C(=O)CO)C[C@@H]3O[C@H]1C[C@H](N)[C@H](O)[C@H](C)O1 [DOX, doxorubicin]",fraction eliminated from the body unchanged,[8],over 50%
"CC(=O)N1CCN(c2ccc(OCC3COC(Cn4ccnc4)(c4ccc(Cl)cc4Cl)O3)cc2)CC1 (stereo not shown) [KET, ketoconazole]",effect of KET co-treatment on conversion of PK11195 from CAR antagonist to CAR activator,[9],significantly inhibited the conversion of PK11195
same,effect of KET co-treatment on repression of CAR activity by PK11195,"[5]; 8 μM KET, HepG2-CAR-2B6 cells alone",not influenced
"CC[C@@H](C)NC(=O)c1cc2ccccc2c(-c2ccccc2Cl)n1 [ND-PK, (R)-N-Desmethyl PK11195]",interaction between hCAR and GRIP1,"[10]; 10 μM, COS1 cells",moderately enhanced
same,effect on PK11195-repressed binding of GRIP1 to hCAR,[10]; ND-PK + PK11195 co-treatment,only minimally affecting
same,nuclear translocation of hCAR (EYFP-hCAR),[2],robustly increased nuclear translocation
same,hCAR activation in the CAR1+A/CYP2B6-2.2k reporter assay,[3],robustly activates hCAR to a level similar to the positive control
same,interaction between hCAR and SRC-1,"[11]; 10 μM, COS1 cells",moderately enhanced
same,effect on PK11195 mediated repression of SRC-1/CAR interaction,[11]; ND-PK + PK11195 co-treatment,markedly rescued
same,LC-MS/MS peak of metabolite in HPH culture medium,[4],significantly increased in intensity
same,hCAR activity (CYP2B6 reporter luciferase activity),[5],activated hCAR in a concentration-dependent manner
same,induction of CYP2B6 and CYP3A4 mRNA and protein,[12],significantly induced
"CCC1(c2ccccc2)C(=O)NC(=O)NC1=O [PB, Phenobarbital]",induction of CYP2B6 and CYP3A4 at mRNA and protein levels,[1]; hepatocytes,robustly induced
"CCC(C)N(C)C(=O)c1cc2ccccc2c(-c2ccccc2Cl)n1 (stereo not shown) [PK11195, 1-(2-chlorophenyl)-N-methyl-N-(1-methylpropyl)-3-isoquinolinecarboxamide]",induction of CYP2B6 and CYP3A4 at mRNA and protein levels,[1],robustly induced
same,metabolism of PK11195 by HPHs,"[4]; 10 μM PK11195, media at 0 and 1 hour",metabolized by HPHs to COOH-PK and ND-PK
same,induction of CYP2B6 and CYP3A4 mRNA and protein,[12],significantly induced
same,induction of CYP2B6 and CYP3A4 mRNA and protein,[13],induced the expression of CYP2B6 and CYP3A4 mRNA and protein
